Measurements reported in patent publication US11279913B2, “Sperm processing method, apparatus and related media compositions” (Inguran, LLC, priority 2017, dated 2022).

Tests used:
Type in all cases: cell-based
bovine sperm [1] = assay: Post-thaw visual motility of sperm sorted with different sheath fluids, Example 17 second test; details: up to 60 mM erythritol in sheath fluid; standard post-sort handling
Method: Standard bovine sperm sorting uses sheath fluid comprising 68 mM Fructose, 80 mM Citrate and 243 mM TRIS at pH 6.80 and osmolarity 290-300 mOsm. […] Combining 88 volumes of TRIS A with 12 volumes of pure glycerol creates a solution called TRIS B (The “B Fraction”). In the case of standard sperm sorting, the “B Fraction” may optionally contain no egg yolk and may be called “[…] Fraction” still containing 12 volumes of pure glycerol. […] The pH of all media was 6.70-6.75 and the osmolarity was 290-305 mOsm. The same two bulls were used for each of two tests and were measured for post-thaw quality at the same time. The first test was done with unstained non-sorted sperm similar to standard “conventional freezing.” The second test was done using different sheath fluids for sorting sperm. The second test compared a CONTROL (standard) sheath fluid to three alternate sheath fluids (H-J). After sorting all samples were handled in the identical manner to standard sperm sorting. A 3.5 mL volume of catch fluid (TRIS A) is placed in each catch tube and sorted sperm are sorted into the catch tube to a volume of 20 mL. That volume of fluid is then cooled for 90 minutes to about 4-6° C. then an equal volume of cold […] Fraction is added. […]

bovine sperm [2] = assay: Post-thaw visual motility of unstained non-sorted sperm frozen in erythritol test media, Example 17 first test
Method: Standard bovine sperm sorting uses sheath fluid comprising 68 mM Fructose, 80 mM Citrate and 243 mM TRIS at pH 6.80 and osmolarity 290-300 mOsm. […] Combining 88 volumes of TRIS A with 12 volumes of pure glycerol creates a solution called TRIS B (The “B Fraction”). In the case of standard sperm sorting, the “B Fraction” may optionally contain no egg yolk and may be called “[…] Fraction” still containing 12 volumes of pure glycerol. […] The pH of all media was 6.70-6.75 and the osmolarity was 290-305 mOsm. The same two bulls were used for each of two tests and were measured for post-thaw quality at the same time. The first test was done with unstained non-sorted sperm similar to standard “conventional freezing.” The second test was done using different sheath fluids for sorting sperm. The first test compared control (standard media) to 7 alternate media (A-G) with compositions including various amounts of erythritol and in some cases glycine. 10 milliliters of sperm of each bull at a concentration of 100 million sperm per milliliter was cooled in standard TRIS A (control media) over 90 minutes from room temperature to about 4-6° C. Samples were then divided into 1 milliliter aliquots and 0.5 mL of cold TEST-B media was added, held for 15 minutes before an additional 0.5 mL of TEST-B media was added. […]

sorted bovine sperm = assay: Motility of sorted bovine sperm stored in CaproGLY or CaproERY at 17° C. (visual and CASA), Example 15; details: holding times longer than 4 days; erythritol versus glycerol in Caprogen
Method: Standard Caprogen (with glycerol) is referred to as “CaproGLY” and erythritol containing Caprogen is referred to as “CaproERY.”
Preparation of media in volume of 100 mL: 95 mL of the respective media working solution is combined with 5 mL of egg yolk, stirred for 15 minutes, held overnight at 4° C., centrifuged for 60 minutes at 1200 G in 50 mL Falcon Tubes (clarified). On day of use, nitrogen gas is bubbled through the clarified media for 15 minutes.
Sorting of the sperm to be held in the two fresh extenders: Fresh Ejaculates of 3 Jersey bulls are bulk sorted according to standard proprietary sex sorting methods disclosed in other patents. In brief, sperm are washed, concentrated and resuspended in a Hepes buffered TRIS Citrate extender to normalize concentration to about […] and pH about 7.15. Each 1 mL of staining comprises: 0.150 mL of sperm solution (about 160 million sperm), 64 nanomoles of Hoechst 33342 in 8 microliters, […] of staining TALP and 100 nanomoles of FD&C food dye. […]
The formulated sperm are filled into 0.25 cc straws, sealed and stored horizontally at 17° C. for up to nine days. On the specified test days, a straw is opened and checked for visual motility (counted by eye by technician using microscope analysis on heated stage), CASA total motility and CASA progressive motility using a Hamilton Thorne IVOS system. […]

bovine sperm [3] = assay: Motility of stained unsorted bovine sperm held in Caprogen-type fresh media (fluorescent CASA), Example 14
Source text: This is with “conventional” (unsorted) sperm stained with Hoechst 33342 (to facilitate CASA using fluorescence).
The fresh extender is a media similar to Caprogen, which contains 5% (v/v) egg yolk and is bubbled with nitrogen gas prior to diluting sperm.
In Caprogen with glycerol, the concentration of glycine is 135 millimolar and the concentration of glycerol is 135 millimolar. Control Media 1 was made with these same concentrations, while the balance of test media (Media 2-7) were made with the following concentrations as shown in Table 13:
Fresh Bovine Ejaculates of 5 bulls were diluted to 160 million sperm per mL into Staining TALP, combined with Hoechst 33342 DNA stain, incubated 60 minutes at 34° C. (as standard staining for XY sperm sorting). Once stained, the sperm in TALP were diluted in the related media to a new concentration of 15 million sperm per mL and placed into 0.25 cc straws, sealed and held horizontal at 18° C. for 4 days. On each day, one straw of sperm was warmed for 15 minutes at 34° C. and the contents of about 200 microliters from the straw were combined with 100 microliters of fresh media identical to the specified test media used to hold the sperm. Sperm were analyzed on fluorescent CASA (Hamilton Thorne IVOS II) using UV illumination.

Row | Compound | effect on sperm quality when present in sheath fluid (in words) (bovine sperm [1]) | erythritol concentration giving optimal freezing results (bovine sperm [2]) [mM] | preserving quality as seen in motility (in words) (sorted bovine sperm) | support of bovine sperm motility (in words) (bovine sperm [3]; as much as 400 millimolar Erythritol in fresh bovine extender, 4 day period) | support of sperm motility (in words) (bovine sperm [3]; up to 4 days, 135 millimolar glycerol, or its replacement with erythritol, in Caprogen fresh media)
1 | OC[C@@H](O)[C@@H](O)CO [erythritol] | beneficial to sperm quality | 15 to 50 | better at preserving quality as seen in motility | good support of bovine sperm motility | –
2 | OCC(O)CO [glycerol, reference compound] | – | – | – | – | beneficial for supporting sperm motility
